Molecules are shown by their SMILES. pEC50, pIC50: −log10 of the molar value. Like-named read-outs stand apart in the source and are kept apart here.

The nature of series [1]: Maximum tolerated dose (MTD) study. It counts as in vivo. As to conditions: 14 days, male athymic mice. On the procedure:
An MTD study was performed for the compound of Example 27. […] The compound was administered at 1, 3, 10 and 30 mg/kg once daily in male athymic mice via subcutaneous route in 5 mice each. […]

In a further series the test system is trypsin. In words: Trypsin enzymatic assay (selectivity screening). The note with it: % Inhibition at 5 μM. Format: biochemical. The source says:
(§1) Purified recombinant matriptase was used in a fluorescence-based screening assay using Gln-Ala-Arg peptide as a substrate. In this assay the cleavage of AMC from Boc-Gln-Ala-Arg-7-amido-4 methylcoumarin hydrochloride (Boc-Gln-Ala-Arg-AMC) (Sigma, USA) was monitored by measuring the increase in fluorescence intensity of AMC released upon proteolytic cleavage at 480 nm (kex=360 nm). Similarly, enzymatic assays in fluorimetric or colorimetric format for uPA, Factor Xa, thrombin, plasmin and trypsin (Sigma, USA) were established using substrates pyroGlu-Gly-Arg-pNA.HCl, Boc-Gln-Ala-Arg-AMC, CH3OCO-D-CHA-Gly-Arg-PNA.AcoH, Pyro Glu-Phe-Lys—pNA.HCl and Boc-Gln-Ala-Arg-AMC, respectively.

The next series concerns the target T1, Factor Xa (Homo sapiens, UniProt P00742).
T1 construct: uPA, Factor Xa, thrombin, plasmin and trypsin (Sigma, USA); purchased Sigma, USA
The experiment in a line: Factor Xa enzymatic assay (selectivity screening). Format: biochemical.
Excerpt: as §1

Another series has as its target T2, uPA (Homo sapiens, UniProt P00749).
T2 construct: purchased Sigma, USA
The experiment in a line: uPA enzymatic assay (selectivity screening). It counts as biochemical.
Excerpt: as §1

The next series concerns the target T3, plasmin (Homo sapiens, UniProt P00747).
T3 construct: uPA, Factor Xa, thrombin, plasmin and trypsin (Sigma, USA); purchased Sigma, USA
The experiment in a line: Plasmin enzymatic assay (selectivity screening). Format: biochemical.
Excerpt: as §1

The subject of series [2] is DU145 cells. The experiment in a line: Cytotoxicity, Calcein AM assay, DU145. It counts as cell-based. The note with it: Homo sapiens, DU-145, 96 h, four days of incubation, read-out: Cell survival at 10 μM (%). The method, then: Cytotoxicity of the compounds was tested in cell lines or primary cells using Calcein AM assay. This assay measures cell viability by quantitation of cleaved fluorescent product of a cell permeable substrate that is retained in the cytoplasm of cells with uncompromised cytoplasmic membrane integrity. The cells were seeded into 96-well plate and allowed to adhere for a day followed by addition of compound at several different concentrations. After four days of incubation with the compound, media was removed from the cells followed by addition of PBS and addition of Calcein AM reagent at 1 μM final concentration. The cells were then allowed to incubate at 37° C. for half an hour followed by reading on the fluorimeter. Percent viability was calculated based on fluorescence value obtained at 485/520 nm with cut off at 495 nm.

The next series deals with PC3 cells. The experiment in a line: PC3 xenograft model. Format: in vivo. As to conditions: for Tumor growth inhibition (%): PC3 model, 21 days. On the procedure: (§2) In order to determine the in vivo efficacy, xenograft models were established by injecting 5×10^6 DU145 cells with matrigel or 5×10^6 PC3 cells without matrigel subcutaneously. Once the tumors reached palpable size (˜80 mm3), compound of Example 27 was administered in a vehicle comprising of 2% ethanol, 10% hydroxyl cyclodextrin in 0.9% saline. The compound of Example 27 was dosed subcutaneously to animals with DU145 tumors at 1.5, 5 and 15 mg/kg for 15 days. In the PC3 xenograft study, compound of Example 27 was administered at 0.5, 1.5, 5.0 and 15.0 mg/kg daily.

Series [3] deals with DU145 cells. In words: Migration assay in transwell chambers. The note with it: Homo sapiens, DU-145, 24 hours. It counts as cell-based. The method, then: Migration assays were performed to determine the effect of matriptase inhibitors on cell motility. Cells were seeded with 10 μM test compound into transwell chambers and allowed to migrate for 24 hours using a combination of 10% FBS and 5 μg/ml fibronectin as chemoattractant.

The target in series [4] is T4, Purified recombinant matriptase (Homo sapiens, UniProt Q9Y5Y6).
T4 sequence (Q9Y5Y6 1-855): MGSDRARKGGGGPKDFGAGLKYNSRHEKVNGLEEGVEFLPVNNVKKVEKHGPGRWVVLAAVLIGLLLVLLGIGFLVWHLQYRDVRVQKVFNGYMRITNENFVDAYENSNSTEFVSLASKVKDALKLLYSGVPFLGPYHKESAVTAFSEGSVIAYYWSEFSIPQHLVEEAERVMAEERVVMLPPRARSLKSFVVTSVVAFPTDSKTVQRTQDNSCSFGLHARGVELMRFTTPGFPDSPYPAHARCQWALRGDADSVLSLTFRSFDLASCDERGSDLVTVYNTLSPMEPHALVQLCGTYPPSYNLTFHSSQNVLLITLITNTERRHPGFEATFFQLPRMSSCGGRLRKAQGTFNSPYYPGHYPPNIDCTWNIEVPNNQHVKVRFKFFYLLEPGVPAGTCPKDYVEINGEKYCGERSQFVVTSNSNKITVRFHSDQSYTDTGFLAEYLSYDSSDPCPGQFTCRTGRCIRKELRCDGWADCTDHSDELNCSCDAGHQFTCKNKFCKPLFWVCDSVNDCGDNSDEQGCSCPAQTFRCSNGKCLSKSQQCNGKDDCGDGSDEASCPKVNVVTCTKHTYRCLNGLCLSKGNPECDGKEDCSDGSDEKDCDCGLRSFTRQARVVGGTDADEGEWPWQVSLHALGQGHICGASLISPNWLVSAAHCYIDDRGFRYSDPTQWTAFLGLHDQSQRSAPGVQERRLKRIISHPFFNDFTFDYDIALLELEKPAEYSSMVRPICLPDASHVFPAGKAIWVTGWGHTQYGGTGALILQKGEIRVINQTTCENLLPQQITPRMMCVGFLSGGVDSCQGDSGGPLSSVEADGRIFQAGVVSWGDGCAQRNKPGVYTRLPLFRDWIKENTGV
The experiment in a line: Matriptase fluorescence-based enzymatic assay (Boc-Gln-Ala-Arg-AMC cleavage). It counts as biochemical.
Excerpt: as §1

Another series deals with T5, thrombin (Homo sapiens, UniProt P00734).
T5 construct: uPA, Factor Xa, thrombin, plasmin and trypsin (Sigma, USA); purchased Sigma, USA
The experiment in a line: Thrombin enzymatic assay (selectivity screening). It counts as biochemical.
Excerpt: as §1

A further series concerns DU145 tumors. The experiment in a line: DU145 xenograft model. Format: in vivo. The note with it: for Tumor growth inhibition (%): DU145 model, 15 days. On the procedure: as §2
Series [5] concerns DU145 cells. In words: Cell invasion assay (matrigel transwell). As to conditions: Homo sapiens, DU-145, 48 hours. It counts as cell-based. On the procedure:
Cell invasion assays were done for quantitating the degree to which invasive cells penetrate a barrier essentially as in migration assay but with the use of matrigel consisting of basement membrane components in the transwell inserts and incubating for 48 hours. The barrier used was matrigel. This was followed by fixing and staining of the transwell insert with 0.5% crystal violet in 25% methanol in order to visualize cells migrated.

Series [6] relates to DU145 cells. In words: Soft agar colony formation assay. Format: cell-based. The note with it: Homo sapiens, DU-145, 504 h, about three weeks, read-out: EC50 for inhibition of soft agar colony formation. The method, then: Soft agar colony formation assays were performed to measure the long-term survival and anchorage-independent growth capacity of tumor cells. DU145 cells were seeded in 0.7% nutrient agar with the test compound on an underlay of 1.4% nutrient agar in a six well plate. On the day following cell seeding, liquid cell culture medium containing the compound was added to the well to prevent the agar from drying out and was changed regularly till the completion of the experiment. The cells were allowed to form colonies for a period of about three weeks following which the colonies were stained with 0.005% solution of crystal violet in 25% methanol. The colonies were counted under a dissecting microscope.

Setting [7] is: 1, 3, 10 and 30 mg/kg once daily subcutaneous.

T1 sequence (P00742 235-488 limits assumed): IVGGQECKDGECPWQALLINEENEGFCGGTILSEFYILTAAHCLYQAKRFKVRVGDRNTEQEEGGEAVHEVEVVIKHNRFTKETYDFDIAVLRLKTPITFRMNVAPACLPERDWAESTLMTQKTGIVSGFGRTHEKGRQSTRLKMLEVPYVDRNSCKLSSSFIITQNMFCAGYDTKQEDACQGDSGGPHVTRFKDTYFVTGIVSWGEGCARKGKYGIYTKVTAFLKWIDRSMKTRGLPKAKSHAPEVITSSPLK
T1 sequence (P00742 41-179 partner limits assumed): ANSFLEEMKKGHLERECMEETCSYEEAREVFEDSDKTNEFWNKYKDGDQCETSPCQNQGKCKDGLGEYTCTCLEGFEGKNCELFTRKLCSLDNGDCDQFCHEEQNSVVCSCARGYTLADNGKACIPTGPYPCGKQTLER
T3 sequence (P00747 581-810 limits assumed, species assumed): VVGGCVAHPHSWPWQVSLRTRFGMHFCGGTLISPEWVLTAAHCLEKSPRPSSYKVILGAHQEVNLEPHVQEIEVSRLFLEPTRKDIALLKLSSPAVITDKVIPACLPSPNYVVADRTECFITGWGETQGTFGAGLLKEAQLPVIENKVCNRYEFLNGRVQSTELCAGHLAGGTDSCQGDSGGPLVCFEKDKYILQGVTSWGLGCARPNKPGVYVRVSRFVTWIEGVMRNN
T3 sequence (P00747 97-580 partner limits assumed, species assumed): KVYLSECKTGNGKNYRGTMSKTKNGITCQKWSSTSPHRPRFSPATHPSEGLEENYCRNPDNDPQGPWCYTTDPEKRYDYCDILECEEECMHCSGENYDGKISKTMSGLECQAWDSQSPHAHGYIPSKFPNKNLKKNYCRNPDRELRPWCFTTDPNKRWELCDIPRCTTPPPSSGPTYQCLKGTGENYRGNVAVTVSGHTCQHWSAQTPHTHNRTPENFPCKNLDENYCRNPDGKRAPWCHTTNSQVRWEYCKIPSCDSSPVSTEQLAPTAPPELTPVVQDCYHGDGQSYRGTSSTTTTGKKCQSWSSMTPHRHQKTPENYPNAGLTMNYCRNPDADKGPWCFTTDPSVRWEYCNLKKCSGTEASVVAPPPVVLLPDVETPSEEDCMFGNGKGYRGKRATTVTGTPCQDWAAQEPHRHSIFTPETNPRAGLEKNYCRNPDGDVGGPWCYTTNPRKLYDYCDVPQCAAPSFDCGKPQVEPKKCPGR

As to `[H]/N=C(\N)c1ccc(Oc2cc(Oc3ccc(/C(N)=N/[H])cc3)cc(C(=O)NC3CCC(N)CC3)c2)cc1` (stereo not drawn) [Example 27, N-(4-Amino-cyclohexyl)-3,5-bis-(4-carbamimidoyl-phenoxy)-benzamide], the Body weight reduction entry in [1] (setting [7]) was “less than 2%”. Also, the Clinical signs result in series [1] (setting [7]) is recorded as “no gross changes in clinical signs”. Besides, in series [1] (setting [7]), the Mortality result is “did not show any mortality”. The Tolerability entry in series [1] (doses up to 30 mg/kg once daily subcutaneous) was “well tolerated”. In addition, the “Trypsin Inhibition (%)” value in the series on trypsin came out at 61%. Besides, the inhibition (as a rule, the drop in the measured response relative to a control, in per cent) at 5 µM at Factor Xa was found to be 83%; at uPA it was 14%; against plasmin it was 33%; on thrombin, 41%. Also, the viability at 10 µM in the series with DU145 cells [2] was 100%. Moreover, the “Tumor growth inhibition (%)” value in the series with PC3 cells (0.5 mg/kg daily) came to 14%; in the series on PC3 cells (1.5 mg/kg daily), 44%; in the series on PC3 cells (5 mg/kg daily), 65%; in the series with PC3 cells (15 mg/kg daily) it was 62%; with DU145 tumors (1.5 mg/kg subcutaneously), 61.2%; in the series on DU145 tumors (5 mg/kg subcutaneously), 84.5%. For the same compound, the “Tumor growth inhibition (%)” value in the series with DU145 tumors (15 mg/kg subcutaneously) is reported as 75%. The “Inhibition of tumor growth (in words)” value in the series with PC3 cells (PC3 xenograft study) is “significant and dose-dependent inhibition of tumor growth”. Further, the values for the inhibition at 10 µM in the series with DU145 cells [3] and in the series on DU145 cells [5] were 88% and 79%, respectively. For the same compound, the pIC50 (as a rule, the IC50 on a negative log10 scale, so that one unit is a factor of ten) in [4] (Table 1, read-out: Matriptase Inhibition IC50) is 7.77; in [4] (Table 2, read-out: Matriptase IC50), 7.77. Further, the “Reduction in tumor volume (in words)” value in the series on DU145 tumors (DU145 xenograft study) is reported as “significant reduction in tumor volume”. For the same compound, the negative logarithm of the EC50 (pEC50) (usually the negative decadic logarithm of the EC50, by convention in mol/L) with DU145 cells [6] is 6.70.

Source of the values: US8722930B2, “Protease inhibitors” (Orion Corporation, priority 2009, dated 2014).
